Test results: the supplement of paper PMC12350171

How the values were obtained:
[1] = tested on: Yersinia enterocolitica WA-314; assay: IC25 growth inhibition; higher = less potent
Procedure, shortened: (§1)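 Overnight monocultures grown in mGAM were moved into pre-reduced plates containing twofold drug dilutions, at a starting OD578 of 0.01 with 1% DMSO (or water). Plates were kept anaerobic and read hourly at OD578 in a plate reader, with at least three biological replicates. For each concentration, the median area under the growth curve was made monotonic, and IC25 was the lowest concentration whose median fell below a cutoff, reported as a tested interval. That cutoff was 0.75.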

Clostridium bolteae = assay: IC25 growth inhibition; higher = less potent
Procedure, shortened: as §1

[2] = tested on: Salmonella enterica typhimurium; assay: IC25 growth inhibition; higher = less potent
Procedure, shortened: as §1

Clostridium perfringens = assay: IC25 growth inhibition; higher = less potent
Procedure, shortened: as §1

[3] = tested on: Fusobacterium nucleatum subsp. Nucleatum; assay: IC25 growth inhibition; higher = less potent
Procedure, shortened: as §1

Shigella flexneri = assay: IC25 growth inhibition; higher = less potent
Procedure, shortened: as §1

Eubacterium rectale = assay: IC25 growth inhibition; higher = less potent
Procedure, shortened: as §1

[4] = tested on: Clostridium saccharolyticum; assay: IC25 growth inhibition; higher = less potent
Procedure, shortened: as §1

Parabacteroides merdae = assay: IC25 growth inhibition; higher = less potent
Procedure, shortened: as §1

Clostridium ramosum = assay: IC25 growth inhibition; higher = less potent
Procedure, shortened: as §1

Bacteroides uniformis = assay: IC25 growth inhibition; higher = less potent
Procedure, shortened: as §1

Streptococcus salivarius = assay: IC25 growth inhibition; higher = less potent
Procedure, shortened: as §1

Bacteroides fragilis NT = assay: IC25 growth inhibition; higher = less potent
Procedure, shortened: as §1

[5] = tested on: Bacteroides thetaiotaomicron; assay: IC25 growth inhibition; higher = less potent
Procedure, shortened: as §1

Vibrio cholerae = assay: IC25 growth inhibition; higher = less potent
Procedure, shortened: as §1

[6] = tested on: Yersinia pseudotuberculosis; assay: IC25 growth inhibition; higher = less potent
Procedure, shortened: as §1

Escherichia coli ED1a = assay: IC25 growth inhibition; higher = less potent
Procedure, shortened: as §1

Bacteroides vulgatus = assay: IC25 growth inhibition; higher = less potent
Procedure, shortened: as §1

Collinsella aerofaciens = assay: IC25 growth inhibition; higher = less potent
Procedure, shortened: as §1

[7] = tested on: Streptococcus parasanguinis; assay: IC25 growth inhibition; higher = less potent
Procedure, shortened: as §1

Roseburia intestinalis = assay: IC25 growth inhibition; higher = less potent
Procedure, shortened: as §1

Coprococcus comes = assay: IC25 growth inhibition; higher = less potent
Procedure, shortened: as §1

Dorea formicigenerans = assay: IC25 growth inhibition; higher = less potent
Procedure, shortened: as §1

Ruminococcus gnavus = assay: IC25 growth inhibition; higher = less potent
Procedure, shortened: as §1

[8] = tested on: Com21 synthetic gut community; assay: community biomass OD578 after 24 h drug treatment relative to untreated (fraction of untreated control); higher = more community growth; conditions: community: Com21 (Com20 + E. coli ED1a)
Method: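 Com21 (Com20 plus E. coli ED1a) was treated with drug for 24 h under anaerobic conditions in mGAM. Community OD578 was then measured and normalised to untreated Com21; mean of 3 biological replicates.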

[9] = drug pretreatment concentration 10 µM
[10] = drug pretreatment concentration 20 µM
[11] = drug pretreatment concentration 40 µM
[12] = drug pretreatment concentration 80 µM
[13] = drug pretreatment concentration 160 µM
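Throughout, for IC25 growth inhibition: lowest concentration where monotonic median growth AUC falls below 0.75 of drug-free control.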

SMILES	IC25 growth inhibition [1]	IC25 growth inhibition (Clostridium bolteae)	IC25 growth inhibition [2]	IC25 growth inhibition (Clostridium perfringens)	IC25 growth inhibition [3]	IC25 growth inhibition (Shigella flexneri)	IC25 growth inhibition (Eubacterium rectale)	IC25 growth inhibition [4]	IC25 growth inhibition (Parabacteroides merdae)	IC25 growth inhibition (Clostridium ramosum)	IC25 growth inhibition (Bacteroides uniformis)	IC25 growth inhibition (Streptococcus salivarius)	IC25 growth inhibition (Bacteroides fragilis NT)	IC25 growth inhibition [5]	IC25 growth inhibition (Vibrio cholerae)	IC25 growth inhibition [6]	IC25 growth inhibition (Escherichia coli ED1a)	IC25 growth inhibition (Bacteroides vulgatus)	IC25 growth inhibition (Collinsella aerofaciens)	IC25 growth inhibition [7]	IC25 growth inhibition (Roseburia intestinalis)	IC25 growth inhibition (Coprococcus comes)	IC25 growth inhibition (Dorea formicigenerans)	IC25 growth inhibition (Ruminococcus gnavus)	community biomass OD578 [8, 9]	community biomass OD578 [8, 10]	community biomass OD578 [8, 11]	community biomass OD578 [8, 12]	community biomass OD578 [8, 13]	community biomass OD578 ([8]; drug pretreatment concentration 2.5 µM)	community biomass OD578 ([8]; drug pretreatment concentration 5 µM)
COc1ccc2[nH]c([S+]([O-])Cc3ncc(C)c(OC)c3C)nc2c1 (stereo unspecified) [Omeprazole]	> 160 µM	> 160 µM	> 160 µM	> 160 µM	> 160 µM	> 160 µM	> 160 µM	> 160 µM	> 160 µM	> 160 µM	> 160 µM	> 160 µM	> 160 µM	> 160 µM	> 160 µM	> 160 µM	> 160 µM	> 160 µM	> 160 µM	> 160 µM	> 160 µM	> 160 µM	> 160 µM	> 160 µM	0.981	0.997	1.01	0.979	0.95		
CC(CN1c2ccccc2Sc2ccccc21)N(C)C (stereo unspecified) [Promethazine]	> 160 µM	> 160 µM	> 160 µM	≤ 160 µM	> 160 µM	> 160 µM	≤ 160 µM	> 160 µM	≤ 10 µM	> 160 µM	> 160 µM	≤ 160 µM	≤ 160 µM	≤ 80 µM	≤ 160 µM	≤ 160 µM	> 160 µM	≤ 20 µM	> 160 µM	> 160 µM	≤ 160 µM	≤ 160 µM	≤ 160 µM	≤ 160 µM	0.987	1.01	0.99	0.991	0.949		
CNCCCC1c2ccccc2C=Cc2ccccc21 [Protriptyline]	≤ 160 µM	> 160 µM	> 160 µM	> 160 µM	≤ 160 µM	> 160 µM	> 160 µM	> 160 µM	> 160 µM	> 160 µM	≤ 160 µM	> 160 µM	> 160 µM	≤ 80 µM	> 160 µM	> 160 µM	> 160 µM	≤ 40 µM	> 160 µM	> 160 µM	> 160 µM	> 160 µM	> 160 µM	> 160 µM	0.995	1.02	1.01	0.991	0.956		
O=C1NCCN1CCN1CCC(c2cn(-c3ccc(F)cc3)c3ccc(Cl)cc23)CC1 [Sertindole]	> 80 µM	≤ 80 µM	> 160 µM	≤ 80 µM	≤ 40 µM	> 80 µM	≤ 20 µM	≤ 40 µM	≤ 40 µM	≤ 80 µM	≤ 20 µM	≤ 20 µM	≤ 40 µM	≤ 40 µM	≤ 80 µM	≤ 160 µM	> 160 µM	≤ 20 µM	≤ 40 µM	≤ 80 µM	≤ 20 µM	≤ 80 µM	≤ 20 µM	≤ 40 µM	1.01	0.991	0.99	0.786	0.451		
CCC(C)(C)C(=O)O[C@H]1C[C@@H](C)C=C2C=C[C@H](C)[C@H](CC[C@@H]3C[C@@H](O)CC(=O)O3)[C@H]21 [Simvastatin]	> 80 µM	> 80 µM	> 80 µM	≤ 40 µM	> 80 µM	> 80 µM	≤ 20 µM	≤ 80 µM	≤ 40 µM	≤ 40 µM	≤ 40 µM	≤ 20 µM	≤ 40 µM	≤ 40 µM	> 80 µM	> 80 µM	> 160 µM	≤ 20 µM	≤ 80 µM	≤ 80 µM	≤ 20 µM	> 80 µM	≤ 80 µM	≤ 40 µM		0.99	0.946	0.844	0.687		
CN(N=O)C(=O)N[C@@H](C=O)[C@@H](O)[C@H](O)[C@H](O)CO [Streptozotocin]	≤ 2.5 µM	≤ 2.5 µM	≤ 10 µM	> 160 µM	< 1.25 µM	≤ 2.5 µM	> 160 µM	< 1.25 µM	≤ 20 µM	< 1.25 µM	≤ 40 µM	> 160 µM	≤ 20 µM	≤ 40 µM	≤ 2.5 µM	≤ 2.5 µM	≤ 2.5 µM	≤ 20 µM	≤ 10 µM	≤ 20 µM	< 1.25 µM	≤ 2.5 µM	> 160 µM	< 1.25 µM	0.909	0.921	0.872	0.859	0.889		
CC/C(=C(\c1ccccc1)c1ccc(OCCN(C)C)cc1)c1ccccc1 [Tamoxifen]	> 40 µM	> 40 µM	> 40 µM	> 40 µM	> 40 µM	> 40 µM	≤ 5 µM	> 40 µM	> 40 µM	> 40 µM	≤ 40 µM	> 40 µM	> 40 µM	≤ 40 µM	> 40 µM	> 40 µM	> 40 µM	> 40 µM	≤ 40 µM	> 40 µM	≤ 20 µM	> 40 µM	≤ 20 µM	≤ 40 µM	1	0.977	0.719			1	1.01
C[C@]1(Cn2ccnn2)[C@H](C(=O)O)N2C(=O)C[C@H]2S1(=O)=O [Tazobactam]	> 160 µM	> 160 µM	≤ 160 µM	≤ 80 µM	≤ 20 µM	≤ 160 µM	≤ 5 µM	≤ 80 µM	≤ 10 µM	> 160 µM	≤ 5 µM	≤ 160 µM	≤ 10 µM	≤ 20 µM	> 160 µM	> 160 µM	≤ 160 µM	≤ 10 µM	≤ 160 µM	≤ 40 µM	≤ 40 µM	≤ 80 µM	≤ 20 µM	≤ 160 µM	0.834	0.79	0.716	0.733	0.722		
